Measured values as given in patent US20260035382A1, “COMPOUNDS AS SUMO ACTIVATING ENZYME INHIBITORS” (WIGEN BIOMEDICINE TECHNOLOGY (SHANGHAI) CO., LTD., priority 2022, published 2026).
Where two headings read alike, the source gives them in different places.

Target: SAE (Homo sapiens (Human), UniProt Q9UBT2)
Experiment: In vitro inhibitory activity assay against SAE (SUMO-2/3 immunofluorescence in HCT116 cells)
Format: cell-based
Settings: 6 h incubation, read-out: SUMO IF IC50
Method in brief: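 HCT116 cells treated with compounds for 6 h at 37 °C, then fixed, permeabilized and immunostained for SUMO-2/3 with FITC secondary detection. Fluorescence compared with DMSO control to give inhibition rate and IC50.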

SAE, sequence (Q9UBT2 whole entry): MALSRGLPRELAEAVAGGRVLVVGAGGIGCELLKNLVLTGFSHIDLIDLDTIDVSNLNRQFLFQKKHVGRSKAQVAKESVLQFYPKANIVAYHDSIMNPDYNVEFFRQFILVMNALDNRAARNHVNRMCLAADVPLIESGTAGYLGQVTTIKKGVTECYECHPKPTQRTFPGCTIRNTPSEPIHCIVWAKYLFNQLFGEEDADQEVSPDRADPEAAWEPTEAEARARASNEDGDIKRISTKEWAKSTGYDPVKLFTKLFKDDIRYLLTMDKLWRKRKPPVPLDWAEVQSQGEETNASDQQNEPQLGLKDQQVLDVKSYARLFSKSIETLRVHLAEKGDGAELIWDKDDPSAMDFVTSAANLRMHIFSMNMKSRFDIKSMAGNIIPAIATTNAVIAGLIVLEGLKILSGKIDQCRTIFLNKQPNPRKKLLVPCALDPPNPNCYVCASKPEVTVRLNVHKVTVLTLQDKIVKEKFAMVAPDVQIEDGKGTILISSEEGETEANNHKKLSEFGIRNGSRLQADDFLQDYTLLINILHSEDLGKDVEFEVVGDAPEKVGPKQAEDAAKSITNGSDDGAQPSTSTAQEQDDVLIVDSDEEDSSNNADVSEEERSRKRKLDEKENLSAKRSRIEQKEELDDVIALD
SAE, sequence (Q9UBE0 whole entry partner): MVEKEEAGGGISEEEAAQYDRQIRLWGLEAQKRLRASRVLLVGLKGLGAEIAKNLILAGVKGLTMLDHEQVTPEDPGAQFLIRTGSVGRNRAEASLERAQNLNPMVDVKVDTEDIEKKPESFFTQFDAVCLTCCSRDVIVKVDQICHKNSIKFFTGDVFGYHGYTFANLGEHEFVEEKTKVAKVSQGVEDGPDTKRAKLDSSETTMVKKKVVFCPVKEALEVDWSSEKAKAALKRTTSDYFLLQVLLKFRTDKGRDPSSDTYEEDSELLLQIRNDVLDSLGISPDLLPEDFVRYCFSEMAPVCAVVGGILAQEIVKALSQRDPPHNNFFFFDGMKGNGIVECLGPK

| Compound | IC50 (numeric values) [nM] | IC50 (class symbols) [nM] |
| --- | --- | --- |
| NS(=O)(=O)OC[C@H]1C[C@@H](Nc2ncncc2C(=O)c2cc3c(s2)CN(CC(F)(F)F)C[C@]32NCCc3ccc(Cl)cc32)C[C@@H]1O [Compound 189] | 24.5 |  |
| C=CCN1Cc2sc(C(=O)c3cncnc3N[C@@H]3C[C@H](COS(N)(=O)=O)[C@@H](O)C3)cc2C2(C1)NCCc1ccc(Cl)cc12 (stereo partly shown) [Compound 190] |  | ≤ 50 |
| C=CCN1Cc2sc(C(=O)c3cncnc3N[C@@H]3C[C@H](COS(N)(=O)=O)[C@@H](O)C3)cc2[C@@]2(C1)NCCc1ccc(Cl)cc12 [Compound 191] | > 1000 |  |
| C=CCN1Cc2sc(C(=O)c3cncnc3N[C@@H]3C[C@H](COS(N)(=O)=O)[C@@H](O)C3)cc2[C@]2(C1)NCCc1ccc(Cl)cc12 [Compound 192] | 25.1 |  |
| C#CCN1Cc2sc(C(=O)c3cncnc3N[C@@H]3C[C@H](COS(N)(=O)=O)[C@@H](O)C3)cc2C2(C1)NCCc1ccc(Cl)cc12 (stereo partly shown) [Compound 193] |  | ≤ 50 |
| C#CCN1Cc2sc(C(=O)c3cncnc3N[C@@H]3C[C@H](COS(N)(=O)=O)[C@@H](O)C3)cc2[C@@]2(C1)NCCc1ccc(Cl)cc12 [Compound 194] | > 1000 |  |
| C#CCN1Cc2sc(C(=O)c3cncnc3N[C@@H]3C[C@H](COS(N)(=O)=O)[C@@H](O)C3)cc2[C@]2(C1)NCCc1ccc(Cl)cc12 [Compound 195] | 21.3 |  |
| [2H]C1([2H])Cc2ccc(Cl)cc2C2(CCCc3sc(C(=O)c4cncnc4N[C@@H]4C[C@H](COS(N)(=O)=O)[C@@H](O)C4)cc32)N1 (stereo partly shown) [Compound 196] |  | 50 to 200 |
| [2H]C1([2H])Cc2ccc(Cl)cc2[C@]2(CCCc3sc(C(=O)c4cncnc4N[C@@H]4C[C@H](COS(N)(=O)=O)[C@@H](O)C4)cc32)N1 [Compound 197] | > 1000 |  |
| [2H]C1([2H])Cc2ccc(Cl)cc2[C@@]2(CCCc3sc(C(=O)c4cncnc4N[C@@H]4C[C@H](COS(N)(=O)=O)[C@@H](O)C4)cc32)N1 [Compound 198] | 28.8 |  |
| [2H]C1([2H])CNC2(CCCc3sc(C(=O)c4cncnc4N[C@@H]4C[C@H](COS(N)(=O)=O)[C@@H](O)C4)cc32)c2cc(Cl)ccc21 (stereo partly shown) [Compound 199] |  | ≤ 50 |
| [2H]C1([2H])CN[C@@]2(CCCc3sc(C(=O)c4cncnc4N[C@@H]4C[C@H](COS(N)(=O)=O)[C@@H](O)C4)cc32)c2cc(Cl)ccc21 [Compound 200] | > 1000 |  |
| [2H]C1([2H])CN[C@]2(CCCc3sc(C(=O)c4cncnc4N[C@@H]4C[C@H](COS(N)(=O)=O)[C@@H](O)C4)cc32)c2cc(Cl)ccc21 [Compound 201] | 26.5 |  |
| Cc1ccc2c(c1)[C@@]1(CCCc3sc(C(=O)c4cncnc4N[C@@H]4C[C@H](COS(N)(=O)=O)[C@@H](O)C4)cc31)NCC2 [Compound 202] |  | 50 to 200 |
| NS(=O)(=O)OC[C@H]1C[C@@H](Nc2ncncc2C(=O)c2cc3c(s2)CCC[C@]32NCCc3ccc(C4CC4)cc32)C[C@@H]1O [Compound 203] |  | 50 to 200 |
| C#Cc1ccc2c(c1)[C@@]1(CCCc3sc(C(=O)c4cncnc4N[C@@H]4C[C@H](COS(N)(=O)=O)[C@@H](O)C4)cc31)NCC2 [Compound 204] |  | 50 to 200 |
| NS(=O)(=O)OC[C@H]1C[C@@H](Nc2ncncc2C(=O)c2cc3c(s2)CCC[C@]32NCCc3ccc(C(F)(F)F)cc32)C[C@@H]1O [Compound 205] |  | 50 to 200 |
| NS(=O)(=O)OC[C@H]1C[C@@H](Nc2ncncc2C(=O)c2cc3c(s2)CCC[C@]32NCCc3cc(F)c(F)cc32)C[C@@H]1O [Compound 206] |  | ≤ 50 |
| NS(=O)(=O)OC[C@H]1C[C@@H](Nc2ncncc2C(=O)c2cc3c(s2)CCC[C@]32NCCc3cc(F)c(Cl)cc32)C[C@@H]1O [Compound 207] |  | ≤ 50 |
| NS(=O)(=O)OC[C@H]1C[C@@H](Nc2ncncc2C(=O)c2cc3c(s2)CCC[C@]32NCCc3cc(Cl)c(Cl)cc32)C[C@@H]1O [Compound 208] |  | ≤ 50 |
| N#Cc1cc2c(cc1Cl)[C@@]1(CCCc3sc(C(=O)c4cncnc4N[C@@H]4C[C@H](COS(N)(=O)=O)[C@@H](O)C4)cc31)NCC2 [Compound 210] |  | ≤ 50 |
| COc1cc2c(cc1Cl)[C@@]1(CCCc3sc(C(=O)c4cncnc4N[C@@H]4C[C@H](COS(N)(=O)=O)[C@@H](O)C4)cc31)NCC2 [Compound 211] |  | 50 to 200 |
| NS(=O)(=O)OC[C@H]1C[C@@H](Nc2ncncc2C(=O)c2cc3c(s2)CCC[C@]32NCCc3cc(F)c(Cl)c(F)c32)C[C@@H]1O [Compound 212] |  | ≤ 50 |
| NS(=O)(=O)OC[C@H]1C[C@@H](Nc2ncncc2C(=O)c2cc3c(s2)CCC[C@]32NCCc3cc(Cl)c(F)cc32)C[C@@H]1O [Compound 213] |  | ≤ 50 |
| NS(=O)(=O)OC[C@H]1C[C@@H](Nc2ncncc2C(=O)c2cc3c(s2)CCC[C@]32NCCc3ccncc32)C[C@@H]1O [Compound 214] |  | 50 to 200 |
| NS(=O)(=O)OC[C@H]1C[C@@H](Nc2ncncc2C(=O)c2cc3c(s2)CCC[C@]32NCCc3cc(Cl)ncc32)C[C@@H]1O [Compound 215] |  | 50 to 200 |
| NS(=O)(=O)OC[C@H]1C[C@@H](Nc2ncncc2C(=O)c2cc3c(s2)C=CC[C@]32NCCc3ccc(Cl)cc32)C[C@@H]1O [Compound 216] |  | ≤ 50 |
| NS(=O)(=O)OC[C@H]1C[C@@H](Nc2ncncc2C(=O)c2cc3c(s2)CC=C[C@]32NCCc3ccc(Cl)cc32)C[C@@H]1O [Compound 217] |  | ≤ 50 |

| Compound | IC50 (numeric values) [nM] | IC50 (class symbols) [nM] |
| --- | --- | --- |
| NS(=O)(=O)OC[C@H]1C[C@@H](Nc2ncncc2C(=O)c2cc3c(s2)OCC[C@]32NCCc3ccc(Cl)cc32)C[C@@H]1O [Compound 218] |  | 50 to 200 |
| NS(=O)(=O)OC[C@H]1C[C@@H](Nc2ncncc2C(=O)c2cc3c(s2)CCC[C@]32NCC3(CC3)c3ccc(Cl)cc32)C[C@@H]1O [Compound 219] |  | ≤ 50 |
| NS(=O)(=O)OC[C@H]1C[C@@H](Nc2ncncc2C(=O)c2cc3c(s2)CCC[C@]32NC3(CC3)Cc3ccc(Cl)cc32)C[C@@H]1O [Compound 220] |  | 50 to 200 |
| NS(=O)(=O)OC[C@H]1C[C@@H](Nc2ncncc2C(=O)c2cc3c(s2)CCC[C@@]32OCCc3ccc(Cl)cc32)C[C@@H]1O [Compound 221] |  | > 200 |
| NS(=O)(=O)OC[C@H]1C[C@@H](Nc2ncncc2C(=O)c2cc3c(s2)CCC[C@]32OCCc3ccc(Cl)cc32)C[C@@H]1O [Compound 222] |  | ≤ 50 |
| Cc1ccc2c(c1)[C@@]1(CCc3sc(C(=O)c4cncnc4N[C@@H]4C[C@H](COS(N)(=O)=O)[C@@H](O)C4)cc31)NCC2 [Compound 223] |  | 50 to 200 |
| NS(=O)(=O)OC[C@H]1C[C@@H](Nc2ncncc2C(=O)c2cc3c(s2)CC[C@]32NCCc3ccc(C4CC4)cc32)C[C@@H]1O [Compound 224] |  | 50 to 200 |
| COc1ccc2c(c1)[C@@]1(CCc3sc(C(=O)c4cncnc4N[C@@H]4C[C@H](COS(N)(=O)=O)[C@@H](O)C4)cc31)NCC2 [Compound 225] |  | 50 to 200 |
| NS(=O)(=O)OC[C@H]1C[C@@H](Nc2ncncc2C(=O)c2cc3c(s2)CC[C@]32NCCc3ccc(C(F)(F)F)cc32)C[C@@H]1O [Compound 226] |  | 50 to 200 |
| NS(=O)(=O)OC[C@H]1C[C@@H](Nc2ncncc2C(=O)c2cc3c(s2)CC[C@]32NCCc3cc(F)c(F)cc32)C[C@@H]1O [Compound 227] |  | ≤ 50 |
| NS(=O)(=O)OC[C@H]1C[C@@H](Nc2ncncc2C(=O)c2cc3c(s2)CC[C@]32NCCc3cc(F)c(Cl)cc32)C[C@@H]1O [Compound 228] |  | ≤ 50 |
| NS(=O)(=O)OC[C@H]1C[C@@H](Nc2ncncc2C(=O)c2cc3c(s2)CC[C@]32NCCc3cc(Cl)c(Cl)cc32)C[C@@H]1O [Compound 229] |  | ≤ 50 |
| Cc1cc2c(cc1Cl)[C@@]1(CCc3sc(C(=O)c4cncnc4N[C@@H]4C[C@H](COS(N)(=O)=O)[C@@H](O)C4)cc31)NCC2 [Compound 230] |  | ≤ 50 |
| N#Cc1cc2c(cc1Cl)[C@@]1(CCc3sc(C(=O)c4cncnc4N[C@@H]4C[C@H](COS(N)(=O)=O)[C@@H](O)C4)cc31)NCC2 [Compound 231] |  | ≤ 50 |
| COc1cc2c(cc1Cl)[C@@]1(CCc3sc(C(=O)c4cncnc4N[C@@H]4C[C@H](COS(N)(=O)=O)[C@@H](O)C4)cc31)NCC2 [Compound 232] |  | 50 to 200 |
| NS(=O)(=O)OC[C@H]1C[C@@H](Nc2ncncc2C(=O)c2cc3c(s2)CC[C@]32NCCc3cc(F)c(Cl)c(F)c32)C[C@@H]1O [Compound 233] |  | ≤ 50 |
| NS(=O)(=O)OC[C@H]1C[C@@H](Nc2ncncc2C(=O)c2cc3c(s2)CC[C@]32NCCc3cc(Cl)c(F)cc32)C[C@@H]1O [Compound 234] |  | ≤ 50 |
| NS(=O)(=O)OC[C@H]1C[C@@H](Nc2ncncc2C(=O)c2cc3c(s2)CC[C@]32NCCc3ccncc32)C[C@@H]1O [Compound 235] |  | 50 to 200 |
| NS(=O)(=O)OC[C@H]1C[C@@H](Nc2ncncc2C(=O)c2cc3c(s2)CC[C@]32NCCc3cc(Cl)ncc32)C[C@@H]1O [Compound 236] |  | 50 to 200 |
| [2H]C1([2H])Cc2ccc(Cl)cc2[C@@]2(C=Cc3sc(C(=O)c4cncnc4N[C@@H]4C[C@H](COS(N)(=O)=O)[C@@H](O)C4)cc32)N1 [Compound 237] |  | ≤ 50 |
| [2H]C1([2H])CN[C@]2(C=Cc3sc(C(=O)c4cncnc4N[C@@H]4C[C@H](COS(N)(=O)=O)[C@@H](O)C4)cc32)c2cc(Cl)ccc21 [Compound 238] |  | ≤ 50 |
| NS(=O)(=O)OC[C@H]1C[C@@H](Nc2ncncc2C(=O)c2cc3c(s2)CO[C@]32NCCc3ccc(Cl)cc32)C[C@@H]1O [Compound 239] |  | 50 to 200 |
| NS(=O)(=O)OC[C@H]1C[C@@H](Nc2ncncc2C(=O)c2cc3c(s2)CC[C@]32NCC3(CC3)c3ccc(Cl)cc32)C[C@@H]1O [Compound 240] |  | 50 to 200 |
| NS(=O)(=O)OC[C@H]1C[C@@H](Nc2ncncc2C(=O)c2cc3c(s2)CC[C@]32NC3(CC3)Cc3ccc(Cl)cc32)C[C@@H]1O [Compound 241] |  | 50 to 200 |
| NS(=O)(=O)OC[C@H]1C[C@@H](Nc2ncncc2C(=O)c2cc3c(s2)CC[C@@]32OCCc3ccc(Cl)cc32)C[C@@H]1O [Compound 242] |  | > 200 |
| NS(=O)(=O)OC[C@H]1C[C@@H](Nc2ncncc2C(=O)c2cc3c(s2)CC[C@]32OCCc3ccc(Cl)cc32)C[C@@H]1O [Compound 243] |  | ≤ 50 |
| NS(=O)(=O)OC[C@H]1C[C@@H](Nc2ncncc2C(=O)c2cc3c(s2)CCCC32OCCc3ccccc32)C[C@@H]1O (stereo partly shown) [Compound 244] |  | > 200 |
